These results are taken from patent US20060029668A1, “Sustained release L-arginine formulations and methods of manufacture and use” (priority 2002, published 2006).

The test system of one assay is infarct volume. The assay is described as follows: Dose optimization of combination of simvastatin and L-arginine, infarct volume in mice. Format: in vivo. As to conditions: mice injected with varying levels of simvastatin and L-arginine; predicted by statistical analysis.
Another assay concerns eNOS. The assay is described as follows: eNOS function in cultured human aortic endothelial cells (conversion of labeled L-arginine to L-citrulline). Type of assay: cell-based. The conditions noted are these: HAEC incubated with 1.0 or 0.3 μM simvastatin for 24 hours; relative to untreated cells. The procedure:
Human aortic endothelial cells (HAEC-c) (BioWhittaker, Walkersville, Md.) were cultured according to the following procedure. Endothelial cells in EBM-2/EGM-2 media (BioWhittaker) were grown to about 80% to about 90% confluence. Each flask of cells was washed with 5 ml media followed by the addition of 15 ml media to each cell. Cells were detached with a cell scraper and transferred to a 50 ml conical tube. Cells were pelleted by centrifugation at 800 RMP for 8 min. The supernatant was discarded and the pellet was washed with cold 1× PBS.
The cells were homogenized as follows. The pellet was loosened and 400 μl of 10× homogenization buffer (250 mM Tris at pH 7.4, 10 mM EDTA and 10 mM EGTA) was added. The sample was homogenized using a 27 G needle about 10 times. The homogenate was transferred to a 1.5 ml epindorph tube. The pellet was subsequently resuspended in 30 to 45 μl of 1× homogenization buffer. […]
Following incubation, about 400 μl of stop equilibration buffer (50 mM NaAcetate at pH 5.5) was added to each sample and control. […] Results are calculated, in part, by subtracting background (buffer control) from each sample. The sample values are expressed as counts per minute or as a percent of untreated cells.
Relative eNOS function was measured by the conversion of labeled-L-arginine to L-citrulline and expressed as a percent of citrulline produced by the non-treated cells. […]

Assay [1] deals with endothelium-dependent vasodilation. The assay is described as follows: Endothelium-dependent vasodilation by brachial artery ultrasound in subjects with elevated ADMA. Format: in vivo, human. As to conditions: subjects in whom eNOS is blocked by elevated ADMA levels.

Turning to `N=C(N)NCCC[C@H](N)C(=O)O` [L-arginine], the “optimal range of the combination” value in the assay on infarct volume is 20 to 25 mg/kg.

In the case of `CCC(C)(C)C(=O)O[C@H]1C[C@@H](C)C=C2C=C[C@H](C)[C@H](CC[C@@H]3C[C@@H](O)CC(=O)O3)[C@H]21` [simvastatin w/o L-arginine SR, simvastatin], in the assay with eNOS, the “level of eNOS function” value is “increases”. In assay [1], the “effect on endothelial function” value was “does not enhance”.
